In general, IC50 refers to the concentration at which inhibition is half-maximal.

Data on 34 molecules can be found in patent publication US20080261994A1, “CYCLOPROPANE COMPOUNDS AND PHARMACEUTICAL USE THEREOF” (Japan Tobacco Inc., priority 2003, published 2008).

Each structure is given as a SMILES string.

What all share (format): biochemical
One experiment addresses T1, MMP-1 (Homo sapiens, UniProt P03956).
T1 sequence (P03956 100-469): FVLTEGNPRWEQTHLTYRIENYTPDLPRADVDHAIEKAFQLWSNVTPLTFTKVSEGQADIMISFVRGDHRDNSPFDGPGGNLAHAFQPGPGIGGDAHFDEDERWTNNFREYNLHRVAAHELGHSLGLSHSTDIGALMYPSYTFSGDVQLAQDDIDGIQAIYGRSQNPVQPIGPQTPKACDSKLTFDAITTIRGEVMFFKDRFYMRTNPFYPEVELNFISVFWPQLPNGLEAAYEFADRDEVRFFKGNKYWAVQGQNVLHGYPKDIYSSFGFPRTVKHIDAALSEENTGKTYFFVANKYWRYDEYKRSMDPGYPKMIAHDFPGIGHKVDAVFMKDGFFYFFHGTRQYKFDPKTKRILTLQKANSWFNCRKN
The experiment in a line: MMP-1 inhibitory action (Type I collagen Activity Measurement kit, FITC-labeled collagen type I). As to conditions: Experimental Example 2; read-out: IC50 MMP1.

In a further experiment the target is T2, aggrecanase-1 (Homo sapiens, UniProt O75173).
T2 sequence (O75173 213-837): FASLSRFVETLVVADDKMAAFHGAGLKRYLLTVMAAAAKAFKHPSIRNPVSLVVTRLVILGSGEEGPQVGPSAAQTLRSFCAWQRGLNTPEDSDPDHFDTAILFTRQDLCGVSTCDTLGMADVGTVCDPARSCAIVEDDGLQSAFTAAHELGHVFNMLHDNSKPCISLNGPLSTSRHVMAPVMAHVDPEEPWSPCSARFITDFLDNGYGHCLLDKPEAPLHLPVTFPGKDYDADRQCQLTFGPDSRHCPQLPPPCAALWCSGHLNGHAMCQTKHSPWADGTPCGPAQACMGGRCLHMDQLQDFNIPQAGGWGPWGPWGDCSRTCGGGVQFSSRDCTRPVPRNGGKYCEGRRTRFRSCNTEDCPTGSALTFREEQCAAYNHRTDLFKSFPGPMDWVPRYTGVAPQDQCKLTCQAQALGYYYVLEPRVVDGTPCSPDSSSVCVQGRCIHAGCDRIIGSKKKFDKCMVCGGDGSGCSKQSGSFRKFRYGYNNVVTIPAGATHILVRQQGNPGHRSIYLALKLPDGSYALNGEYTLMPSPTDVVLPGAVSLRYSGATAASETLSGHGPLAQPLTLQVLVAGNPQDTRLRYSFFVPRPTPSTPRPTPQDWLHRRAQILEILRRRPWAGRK
As to the kind of experiment: Aggrecanase-1 inhibitory action (Particle Assay, GAG release from aggrecan-containing polyacrylamide particles). The note with it: Experimental Example 1; read-out: IC50 AG1. Summed up: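 Enzyme and compound incubated with aggrecan-containing polyacrylamide particles in Tris-HCl buffer at 37° C for 15 h. Released GAG in supernatant measured with 1,9-dimethylmethylene blue at 595 nm against chondroitin sulfate standard; % inhibition from enzyme-free and inhibitor-free wells, reported as TC50 (μM).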

The next experiment concerns the target T3, Recombinant Human MMP-13 (Homo sapiens, UniProt P45452).
T3 construct: purchased R&D systems 511-MM
As to the kind of experiment: MMP-13 inhibitory activity (MMP-13 specific fluorescent substrate with quencher). The note with it: Experimental Example 3; read-out: IC50 MMP13. In a few lines: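 Recombinant human MMP-13 with test compound, reaction started with quenched fluorogenic peptide 7-MCA-Pro-CHA-Gly-NVal-His-Ala-DPA in Tris-HCl buffer, 1 h at 25 °C, stopped with acetic acid. Fluorescence at Ex 325/Em 405 nm; % inhibition versus enzyme-free and inhibitor-free wells, reported as IC50 (μM).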

`C[C@]1(c2ccccc2)C[C@@]1(NS(=O)(=O)c1cn2cc(-c3ccccc3)nc2s1)C(=O)O` [Example 2-518]: the IC50 is less than 1000 nM at MMP-1, less than 1000 nM at aggrecanase-1 and less than 100 nM at Recombinant Human MMP-13.

In the case of `COCc1cn2cc(S(=O)(=O)N[C@@]3(C(=O)O)C[C@]3(C)c3ccccc3)sc2n1` [Example 2-519], the IC50 at MMP-1, on aggrecanase-1 and on Recombinant Human MMP-13 was no less than 1000 nM throughout.

As to `CC1[C@H](c2ccccc2)[C@]1(NS(=O)(=O)c1cn2cc(Cn3cc(Cl)cn3)nc2s1)C(=O)O` (stereo partly drawn) [Example 2-520], the IC50 on MMP-1, on aggrecanase-1 and on Recombinant Human MMP-13 was no less than 1000 nM throughout.

Consider `CCOC(=O)c1cnn(-c2ccc(S(=O)(=O)N[C@@]3(C(=O)O)C(C)[C@@H]3c3ccccc3)s2)c1` (stereo partly drawn) [Example 2-521], for which the IC50 is no less than 1000 nM at MMP-1, less than 1000 nM at aggrecanase-1 and less than 100 nM at Recombinant Human MMP-13.

In the case of `CC1[C@H](c2ccccc2)[C@]1(NS(=O)(=O)c1ccc(-n2cc(C(=O)O)cn2)s1)C(=O)O` (stereo partly drawn) [Example 2-522], the IC50 was no less than 1000 nM at MMP-1, no less than 1000 nM on aggrecanase-1 and less than 100 nM on Recombinant Human MMP-13.

Consider `CC1[C@H](c2ccccc2)[C@]1(NS(=O)(=O)c1ccc(-n2cc(C(C)(C)O)cn2)s1)C(=O)O` (stereo partly drawn) [Example 2-523], for which the IC50 is less than 1000 nM at MMP-1, less than 1000 nM on aggrecanase-1 and less than 100 nM at Recombinant Human MMP-13.

For the molecule `CC1[C@H](c2ccccc2)[C@]1(NS(=O)(=O)c1ccc(-n2cc(S(C)(=O)=O)cn2)s1)C(=O)O` (stereo partly drawn) [Example 2-524], the IC50 on MMP-1, on aggrecanase-1 and at Recombinant Human MMP-13 was less than 100 nM each time.

Consider `CC1C(c2ccccc2)C1(NS(=O)(=O)c1ccc(-c2cccc(CO)c2)s1)C(=O)O` (stereo not drawn) [Example 2-525], for which the IC50 on MMP-1, on aggrecanase-1 and on Recombinant Human MMP-13 was less than 100 nM throughout.

Take `C[C@]1(c2ccccc2)C[C@@]1(NS(=O)(=O)c1ccc(-c2ccncc2)s1)C(=O)O` [Example 2-526]: the IC50 at MMP-1, at aggrecanase-1 and on Recombinant Human MMP-13 was no less than 1000 nM in each case.

`C[C@]1(c2ccccc2)C[C@@]1(NS(=O)(=O)c1ccc(-c2cccnc2)s1)C(=O)O` [Example 2-527]: the IC50 at MMP-1, on aggrecanase-1 and at Recombinant Human MMP-13 was no less than 1000 nM in each case.

As to `COc1cc2c(cc1OC)CN(S(=O)(=O)N[C@@]1(C(=O)O)C(C)[C@@H]1c1ccccc1)CC2` (stereo partly drawn) [Example 2-528], the IC50 on MMP-1, at aggrecanase-1 and on Recombinant Human MMP-13 was no less than 1000 nM in each case.

Turning to `CC1[C@H](c2ccccc2)[C@]1(NS(=O)(=O)N1CCN(C(=O)NCc2ccccc2)CC1)C(=O)O` (stereo partly drawn) [Example 2-529], the IC50 at MMP-1, at aggrecanase-1 and on Recombinant Human MMP-13 was no less than 1000 nM each time.

As for `CC(C)CCN1CCN(S(=O)(=O)N[C@@]2(C(=O)O)C(C)[C@@H]2c2ccccc2)CC1` (stereo partly drawn) [Example 2-530], the IC50 at MMP-1, at aggrecanase-1 and at Recombinant Human MMP-13 was no less than 1000 nM throughout.

Regarding `CC1[C@H](c2ccccc2)[C@]1(NS(=O)(=O)N1CCN(CCc2ccccc2)CC1)C(=O)O` (stereo partly drawn) [Example 2-531], the IC50 on MMP-1, at aggrecanase-1 and at Recombinant Human MMP-13 was no less than 1000 nM each time.

In the case of `CC1[C@H](c2ccccc2)[C@]1(NS(=O)(=O)N1CCN(C(=O)OCc2ccccc2)CC1)C(=O)O` (stereo partly drawn) [Example 2-532], the IC50 on MMP-1, at aggrecanase-1 and at Recombinant Human MMP-13 was no less than 1000 nM throughout.

`CC1[C@H](c2ccccc2)[C@]1(NS(=O)(=O)N1CCN(c2ccncc2)CC1)C(=O)O` (stereo partly drawn) [Example 2-533]: the IC50 at MMP-1, on aggrecanase-1 and at Recombinant Human MMP-13 was no less than 1000 nM throughout.

Consider `COCCN1CCN(S(=O)(=O)N[C@@]2(C(=O)O)C(C)[C@@H]2c2ccccc2)CC1` (stereo partly drawn) [Example 2-534], for which the IC50 at MMP-1, at aggrecanase-1 and at Recombinant Human MMP-13 was no less than 1000 nM in each case.

As to `CC1[C@H](c2ccccc2)[C@]1(NS(=O)(=O)N1CCc2ccccc2C1)C(=O)O` (stereo partly drawn) [Example 2-535], the IC50 at MMP-1, at aggrecanase-1 and at Recombinant Human MMP-13 was no less than 1000 nM throughout.

On to `COc1ccc(CN2CCN(S(=O)(=O)N[C@@]3(C(=O)O)C(C)[C@@H]3c3ccccc3)CC2)cc1` (stereo partly drawn) [Example 2-536], for which the IC50 on MMP-1, on aggrecanase-1 and at Recombinant Human MMP-13 was no less than 1000 nM in each case.

Regarding `CC1[C@H](c2ccccc2)[C@]1(NS(=O)(=O)N1CCN(C/C=C/c2ccccc2)CC1)C(=O)O` (stereo partly drawn) [Example 2-537], the IC50 on MMP-1, on aggrecanase-1 and on Recombinant Human MMP-13 was no less than 1000 nM in each case.

As to `CC1[C@H](c2ccccc2)[C@]1(NS(=O)(=O)N1Cc2ccc(Cl)cc2C1)C(=O)O` (stereo partly drawn) [Example 2-538], the IC50 on MMP-1 is no less than 1000 nM; on aggrecanase-1 it was no less than 1000 nM; on Recombinant Human MMP-13, less than 1000 nM.

In the case of `COCC1C(c2ccccc2)C1(NS(=O)(=O)c1ccc(-c2cc(C(F)(F)F)on2)s1)C(=O)O` (stereo not drawn) [Example 2-539], the IC50 was less than 1000 nM on MMP-1, less than 100 nM at aggrecanase-1 and less than 100 nM on Recombinant Human MMP-13.

Turning to `CC1C(c2ccccc2)C1(NS(=O)(=O)c1ccc(-c2cccc(CN3CCOCC3)c2)s1)C(=O)O` (stereo not drawn) [Example 2-540], the IC50 on MMP-1 was no less than 1000 nM; on aggrecanase-1, no less than 1000 nM; at Recombinant Human MMP-13 it was less than 1000 nM.

For `CC1C(c2ccccc2)C1(NS(=O)(=O)c1ccc(CCc2ccccc2)s1)C(=O)O` (stereo not drawn) [Example 2-541], the IC50 at MMP-1, at aggrecanase-1 and at Recombinant Human MMP-13 was no less than 1000 nM in each case.

For `CC1[C@H](c2ccccc2)[C@]1(NS(=O)(=O)c1ccc(-n2cccn2)s1)C(=O)O` (stereo partly drawn) [Example 2-542], the IC50 at MMP-1 is no less than 1000 nM; at aggrecanase-1, less than 1000 nM; on Recombinant Human MMP-13 it was less than 100 nM.

Take `CC1[C@H](c2ccccc2)[C@]1(NS(=O)(=O)c1ccc(-n2cc(I)cn2)s1)C(=O)O` (stereo partly drawn) [Example 2-543]: the IC50 at MMP-1, on aggrecanase-1 and at Recombinant Human MMP-13 was less than 100 nM each time.

Turning to `C[C@]1(c2ccccc2)C[C@@]1(NS(=O)(=O)c1ccc(-c2ccc3c(c2)OC(F)(F)O3)s1)C(=O)O` [Example 2-544], the IC50 on MMP-1 was no less than 1000 nM; on aggrecanase-1, less than 1000 nM; at Recombinant Human MMP-13 it was less than 1000 nM.

With `C=C(Cl)c1cnn(-c2ccc(S(=O)(=O)N[C@@]3(C(=O)O)C(C)[C@@H]3c3ccccc3)s2)c1` (stereo partly drawn) [Example 2-545], the IC50 on MMP-1, at aggrecanase-1 and on Recombinant Human MMP-13 was less than 100 nM throughout.

As for `CC(=O)c1cnn(-c2ccc(S(=O)(=O)N[C@@]3(C(=O)O)C(C)[C@@H]3c3ccccc3)s2)c1` (stereo partly drawn) [Example 2-546], the IC50 on MMP-1, on aggrecanase-1 and on Recombinant Human MMP-13 was less than 100 nM in each case.

In the case of `CC(O)c1cnn(-c2ccc(S(=O)(=O)N[C@@]3(C(=O)O)C(C)[C@@H]3c3ccccc3)s2)c1` (stereo partly drawn) [Example 2-547], the IC50 on MMP-1, at aggrecanase-1 and at Recombinant Human MMP-13 was less than 100 nM in each case.

Regarding `CC1[C@H](c2ccccc2)[C@]1(NS(=O)(=O)N1Cc2ccc(O)cc2C1)C(=O)O` (stereo partly drawn) [Example 2-548], the IC50 on MMP-1, at aggrecanase-1 and on Recombinant Human MMP-13 was no less than 1000 nM throughout.

Take `CC1[C@H](c2ccccc2)[C@]1(NS(=O)(=O)N1CCC(OCc2cccc(Cl)c2)C1)C(=O)O` (stereo partly drawn) [Example 2-549]: the IC50 on MMP-1, at aggrecanase-1 and on Recombinant Human MMP-13 was no less than 1000 nM in each case.

On to `CC1[C@H](c2ccccc2)[C@]1(NS(=O)(=O)N1CCC(OCc2ccc(Cl)cc2)C1)C(=O)O` (stereo partly drawn) [Example 2-550], for which the IC50 at MMP-1, on aggrecanase-1 and on Recombinant Human MMP-13 was no less than 1000 nM throughout.

`CC1[C@H](c2ccccc2)[C@]1(NS(=O)(=O)N1CCC(OCc2cc(Cl)ccc2Cl)C1)C(=O)O` (stereo partly drawn) [Example 2-551]: the IC50 on MMP-1, on aggrecanase-1 and on Recombinant Human MMP-13 was no less than 1000 nM in each case.
